This passage reports relative viability results from the supplement of paper PMC10307832.

Assay in all cases: relative viability (nuclei count vs DMSO), 5 days (fraction); higher = more cells survive
Compound in the test “DM3189 + Trametinib”: C1CN(CCN1)C2=CC=C(C=C2)C3=CN4C(=C(C=N4)C5=CC=NC6=CC=CC=C56)N=C3 [DM3189] + CC(=O)Nc1cccc(-n2c(=O)n(C3CC3)c(=O)c3c(Nc4ccc(I)cc4F)n(C)c(=O)c(C)c32)c1 [Trametinib] (partner 0.02 µM)
The method in brief: (§1)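 Cells from lung cancer lines were seeded into 1536-well plates and, one day later, dosed by pin tool. Treatments were either a single drug or a fixed dose of an anchor drug with five library-drug doses (not always all listed) in √10 steps. After 5 days, nuclei were stained in a one-step fixation (final 0.05% Triton X-100, 1% formaldehyde, 1 ug/ml Hoechst) and counted on 4× images, and relative viability is the treated-to-vehicle nuclei ratio, as the median of duplicate plates.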

Compound in the test “DM3189 + Navitoclax”: C1CN(CCN1)C2=CC=C(C=C2)C3=CN4C(=C(C=N4)C5=CC=NC6=CC=CC=C56)N=C3 [DM3189] + CC1(C)CCC(c2ccc(Cl)cc2)=C(CN2CCN(c3ccc(C(=O)NS(=O)(=O)c4ccc(N[C@H](CCN5CCOCC5)CSc5ccccc5)c(S(=O)(=O)C(F)(F)F)c4)cc3)CC2)C1 [Navitoclax] (partner 0.5 µM)
The method in brief:
as §1

Compound in the test “DM3189 + Foretinib”: C1CN(CCN1)C2=CC=C(C=C2)C3=CN4C(=C(C=N4)C5=CC=NC6=CC=CC=C56)N=C3 [DM3189] + COc1cc2c(Oc3ccc(NC(=O)C4(C(=O)Nc5ccc(F)cc5)CC4)cc3F)ccnc2cc1OCCCN1CCOCC1 [Foretinib] (partner 0.25 µM)
The method in brief: as §1

Compound in the test “DM3189 + Lapatinib”: C1CN(CCN1)C2=CC=C(C=C2)C3=CN4C(=C(C=N4)C5=CC=NC6=CC=CC=C56)N=C3 [DM3189] + CS(=O)(=O)CCNCc1ccc(-c2ccc3ncnc(Nc4ccc(OCc5cccc(F)c5)c(Cl)c4)c3c2)o1 [Lapatinib] (partner 2 µM)
The method in brief:
as §1

Compound in the test “DM3189 + Dasatinib”: C1CN(CCN1)C2=CC=C(C=C2)C3=CN4C(=C(C=N4)C5=CC=NC6=CC=CC=C56)N=C3 [DM3189] + Cc1nc(Nc2ncc(C(=O)Nc3c(C)cccc3Cl)s2)cc(N2CCN(CCO)CC2)n1 [Dasatinib] (partner 0.075 µM)
The method in brief: as §1

On to EKVX, for which the relative viability turned out to be 0.325 with DM3189 + Trametinib (first compound 0.08 µM); 0.328 with DM3189 + Trametinib (first compound 0.8 µM); 0.338 with DM3189 + Trametinib (first compound 2.53 µM); 0.816 with DM3189 + Navitoclax (first compound 0.08 µM); 0.899 in the test with DM3189 + Navitoclax (first compound 0.253 µM); 0.9 in the test with DM3189 + Navitoclax (first compound 0.8 µM). For the same cell line, the relative viability in the test with DM3189 + Navitoclax (first compound 2.53 µM) stood at 1.07; in the test with DM3189 + Foretinib (first compound 0.08 µM), 0.892; with DM3189 + Foretinib (first compound 0.253 µM), 0.82; with DM3189 + Foretinib (first compound 0.8 µM) it was 0.539; with DM3189 + Foretinib (first compound 2.53 µM), 0.803; with DM3189 + Lapatinib (first compound 0.08 µM) it was 0.201. The relative viability was 0.183 with DM3189 + Lapatinib (first compound 0.253 µM); 0.228 with DM3189 + Lapatinib (first compound 0.8 µM); 0.245 in the test with DM3189 + Lapatinib (first compound 2.53 µM); 0.542 with DM3189 + Dasatinib (first compound 0.08 µM); 0.473 with DM3189 + Dasatinib (first compound 0.253 µM); 0.457 with DM3189 + Dasatinib (first compound 0.8 µM). Further, the relative viability with DM3189 + Dasatinib (first compound 2.53 µM) is 0.518.
EMC-BAC-2: the relative viability with DM3189 + Trametinib (first compound 0.08 µM) was found to be 0.925; with DM3189 + Trametinib (first compound 0.253 µM), 0.877; with DM3189 + Trametinib (first compound 0.8 µM), 0.891; with DM3189 + Trametinib (first compound 2.53 µM), 1.04; in the test with DM3189 + Navitoclax (first compound 0.08 µM) it was 1.13; in the test with DM3189 + Navitoclax (first compound 0.253 µM) it was 1.14. For the same cell line, the relative viability stood at 1.13 in the test with DM3189 + Navitoclax (first compound 0.8 µM); 1.02 in the test with DM3189 + Navitoclax (first compound 2.53 µM); 0.981 in the test with DM3189 + Foretinib (first compound 0.08 µM); 0.966 in the test with DM3189 + Foretinib (first compound 0.253 µM); 0.938 in the test with DM3189 + Foretinib (first compound 0.8 µM); 1.18 in the test with DM3189 + Foretinib (first compound 2.53 µM). Also, the relative viability came out at 0.894 with DM3189 + Lapatinib (first compound 0.08 µM); 0.888 with DM3189 + Lapatinib (first compound 0.253 µM); 0.859 with DM3189 + Lapatinib (first compound 0.8 µM); 0.934 with DM3189 + Lapatinib (first compound 2.53 µM); 0.372 in the test with DM3189 + Dasatinib (first compound 0.08 µM); 0.32 in the test with DM3189 + Dasatinib (first compound 0.253 µM). Further, the relative viability with DM3189 + Dasatinib (first compound 0.8 µM) turned out to be 0.319; with DM3189 + Dasatinib (first compound 2.53 µM), 0.353.
Regarding EPLC-272H, the relative viability with DM3189 + Trametinib (first compound 0.08 µM) is 0.285; in the test with DM3189 + Trametinib (first compound 0.253 µM) it was 0.326; with DM3189 + Trametinib (first compound 0.8 µM), 0.267; in the test with DM3189 + Trametinib (first compound 2.53 µM), 0.322; with DM3189 + Navitoclax (first compound 0.08 µM) it was 1.25; in the test with DM3189 + Navitoclax (first compound 0.253 µM), 1.07. In addition, the relative viability in the test with DM3189 + Navitoclax (first compound 0.8 µM) was 1.11; in the test with DM3189 + Navitoclax (first compound 2.53 µM) it was 1.08; with DM3189 + Foretinib (first compound 0.08 µM), 0.677; with DM3189 + Foretinib (first compound 0.253 µM), 0.67; in the test with DM3189 + Foretinib (first compound 0.8 µM), 0.783; in the test with DM3189 + Foretinib (first compound 2.53 µM) it was 0.59. The relative viability with DM3189 + Lapatinib (first compound 0.08 µM) was determined as 1.1; in the test with DM3189 + Lapatinib (first compound 0.253 µM) it was 0.842; with DM3189 + Lapatinib (first compound 0.8 µM), 0.933; with DM3189 + Lapatinib (first compound 2.53 µM), 0.762; in the test with DM3189 + Dasatinib (first compound 0.08 µM), 0.406; with DM3189 + Dasatinib (first compound 0.253 µM), 0.375. Further, the relative viability was 0.276 with DM3189 + Dasatinib (first compound 0.8 µM) and 0.265 in the test with DM3189 + Dasatinib (first compound 2.53 µM).
Consider H3255, for which the relative viability with DM3189 + Trametinib (first compound 0.08 µM) was 0.789; with DM3189 + Trametinib (first compound 0.253 µM), 0.731; with DM3189 + Trametinib (first compound 0.8 µM) it was 0.513; with DM3189 + Trametinib (first compound 2.53 µM), 0.732; in the test with DM3189 + Navitoclax (first compound 0.08 µM), 0.685; with DM3189 + Navitoclax (first compound 0.253 µM), 0.577. Also, the relative viability with DM3189 + Navitoclax (first compound 0.8 µM) was determined as 0.559; in the test with DM3189 + Navitoclax (first compound 2.53 µM), 0.5; in the test with DM3189 + Foretinib (first compound 0.08 µM), 1.13; with DM3189 + Foretinib (first compound 0.253 µM) it was 0.936; in the test with DM3189 + Foretinib (first compound 0.8 µM), 0.764; with DM3189 + Foretinib (first compound 2.53 µM), 0.85. Also, the relative viability with DM3189 + Lapatinib (first compound 0.08 µM) came to 0.259; with DM3189 + Lapatinib (first compound 0.253 µM), 0.267; with DM3189 + Lapatinib (first compound 0.8 µM), 0.224; in the test with DM3189 + Lapatinib (first compound 2.53 µM), 0.277; in the test with DM3189 + Dasatinib (first compound 0.08 µM), 0.553; in the test with DM3189 + Dasatinib (first compound 0.253 µM), 0.303. The relative viability in the test with DM3189 + Dasatinib (first compound 0.8 µM) amounted to 0.442; with DM3189 + Dasatinib (first compound 2.53 µM), 0.32.
Consider HARA, for which the relative viability with DM3189 + Trametinib (first compound 0.08 µM) came to 0.674; with DM3189 + Trametinib (first compound 0.253 µM), 0.736; with DM3189 + Trametinib (first compound 0.8 µM), 0.712; with DM3189 + Trametinib (first compound 2.53 µM) it was 0.944; with DM3189 + Navitoclax (first compound 0.08 µM), 1.13; in the test with DM3189 + Navitoclax (first compound 0.253 µM), 1.09. The relative viability turned out to be 1.08 with DM3189 + Navitoclax (first compound 0.8 µM); 1.21 with DM3189 + Navitoclax (first compound 2.53 µM); 0.979 in the test with DM3189 + Foretinib (first compound 0.08 µM); 0.454 in the test with DM3189 + Foretinib (first compound 0.253 µM); 0.87 in the test with DM3189 + Foretinib (first compound 0.8 µM); 1.09 in the test with DM3189 + Foretinib (first compound 2.53 µM). For the same cell line, the relative viability stood at 0.93 in the test with DM3189 + Lapatinib (first compound 0.08 µM); 0.625 with DM3189 + Lapatinib (first compound 0.253 µM); 0.6 with DM3189 + Lapatinib (first compound 0.8 µM); 0.856 with DM3189 + Lapatinib (first compound 2.53 µM); 0.358 in the test with DM3189 + Dasatinib (first compound 0.08 µM); 0.262 in the test with DM3189 + Dasatinib (first compound 0.253 µM). The relative viability was 0.306 in the test with DM3189 + Dasatinib (first compound 0.8 µM) and 0.313 with DM3189 + Dasatinib (first compound 2.53 µM).
Take HCC-15: the relative viability with DM3189 + Trametinib (first compound 0.08 µM) worked out at 0.447; with DM3189 + Trametinib (first compound 0.253 µM) it was 0.431; with DM3189 + Trametinib (first compound 0.8 µM) it was 0.406; with DM3189 + Trametinib (first compound 2.53 µM), 0.414; with DM3189 + Navitoclax (first compound 0.08 µM) it was 0.687; with DM3189 + Navitoclax (first compound 0.253 µM), 0.675. The relative viability in the test with DM3189 + Navitoclax (first compound 0.8 µM) is 0.646; with DM3189 + Navitoclax (first compound 2.53 µM) it was 0.735; in the test with DM3189 + Foretinib (first compound 0.08 µM), 1.16; with DM3189 + Foretinib (first compound 0.253 µM), 0.962; with DM3189 + Foretinib (first compound 0.8 µM), 1; with DM3189 + Foretinib (first compound 2.53 µM), 0.927. Moreover, the relative viability worked out at 0.983 in the test with DM3189 + Lapatinib (first compound 0.08 µM); 0.843 in the test with DM3189 + Lapatinib (first compound 0.253 µM); 0.81 with DM3189 + Lapatinib (first compound 0.8 µM); 0.816 with DM3189 + Lapatinib (first compound 2.53 µM); 0.632 with DM3189 + Dasatinib (first compound 0.08 µM); 0.541 in the test with DM3189 + Dasatinib (first compound 0.253 µM). Also, the relative viability in the test with DM3189 + Dasatinib (first compound 0.8 µM) worked out at 0.492; in the test with DM3189 + Dasatinib (first compound 2.53 µM), 0.559.
On to HCC-44, for which the relative viability with DM3189 + Trametinib (first compound 0.08 µM) is 1.07; with DM3189 + Trametinib (first compound 0.253 µM) it was 1.09; with DM3189 + Trametinib (first compound 0.8 µM), 0.897; with DM3189 + Trametinib (first compound 2.53 µM) it was 1.2; with DM3189 + Navitoclax (first compound 0.08 µM) it was 1.12; with DM3189 + Navitoclax (first compound 0.253 µM), 1.11. For the same cell line, the relative viability in the test with DM3189 + Navitoclax (first compound 0.8 µM) is 0.813; with DM3189 + Navitoclax (first compound 2.53 µM), 1.44; in the test with DM3189 + Lapatinib (first compound 0.08 µM), 1.13; with DM3189 + Lapatinib (first compound 0.253 µM) it was 0.743; with DM3189 + Lapatinib (first compound 0.8 µM), 0.792; with DM3189 + Lapatinib (first compound 2.53 µM), 1.02.
Take HCC-78: the relative viability was 0.64 in the test with DM3189 + Trametinib (first compound 0.08 µM); 0.588 in the test with DM3189 + Trametinib (first compound 0.253 µM); 0.541 with DM3189 + Trametinib (first compound 0.8 µM); 0.624 with DM3189 + Trametinib (first compound 2.53 µM); 0.877 with DM3189 + Navitoclax (first compound 0.08 µM); 0.725 with DM3189 + Navitoclax (first compound 0.253 µM). Moreover, the relative viability was 0.976 in the test with DM3189 + Navitoclax (first compound 2.53 µM); 0.549 with DM3189 + Foretinib (first compound 0.08 µM); 0.534 with DM3189 + Foretinib (first compound 0.253 µM); 0.529 with DM3189 + Foretinib (first compound 0.8 µM); 0.435 with DM3189 + Foretinib (first compound 2.53 µM); 0.981 with DM3189 + Lapatinib (first compound 0.08 µM). The relative viability was determined as 0.656 with DM3189 + Lapatinib (first compound 0.253 µM); 0.825 in the test with DM3189 + Lapatinib (first compound 2.53 µM); 0.362 with DM3189 + Dasatinib (first compound 0.08 µM); 0.495 with DM3189 + Dasatinib (first compound 0.253 µM); 0.393 with DM3189 + Dasatinib (first compound 0.8 µM); 0.381 in the test with DM3189 + Dasatinib (first compound 2.53 µM).
